Experimental data from patent US6914045B2, “Glycopeptide antibiotics” (Wyeth Holdings Corporation, priority 2001, dated 2005).
Values after ≈ are worked out from the molar mass of the structure shown. Numbered stars: 1 amine (or outer) side, 2 acyl side, 3 side chain; on linkers, the order of the positions; unused ones are H or OH. Square brackets hold non-standard residues; d marks the D form. Peptide text beside a SMILES is read from it. ξ: configuration not given here. X1 = N=C1NCC(C(O)C(N[*:1])C(=O)[*:2])N1C1OC(CO)C(O)C(O)C1O; ξEnduracididine(βξ-OH,4'ξ) = N=C1NCC(C(O)C(N)C(=O)O)N1

Assays:
Assay in all cases: in vitro antibacterial evaluation, MIC by broth dilution
Assay type in all cases: cell-based
[1] = system: Escherichia coli; settings: 18 hours at 35° C.
How it was run: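 MIC = lowest antibiotic concentration preventing visible growth; inoculum 5×10^5 CFU/mL; drug range 64-0.06 μg/mL; Muller-Hinton II […]; NCCLS M7-A2 guidance.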

[2] = system: Streptococcus sp.; settings: broth dilution, 18 hours at 35° C.
How it was run: (§1)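 Following National Committee for Clinical Laboratory Standards recommendations (M7-A2), susceptibility was measured by dilution in Muller-Hinton II […]. Bacteria were seeded at 5×10^5 CFU/mL against compound concentrations from 64 down to 0.06 μg/mL.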

[3] = system: Enterococcus sp.; settings: broth dilution, 18 hours at 35° C.
How it was run: as §1

[4] = system: Staphylococcus sp.; settings: broth dilution, 18 hours at 35° C.
How it was run: as §1

With `N=C1NCC(C(O)C2NC(=O)C(Cc3ccc(O)cc3)NC(=O)C(Cc3ccccc3)NC(=O)CNC(=O)C(CO)NC(=O)C(C(O)C3CNC(=N)N3C3OC(CO)C(O)C(O)C3O)NC2=O)N1` (stereo not drawn) [Example 279a, Cyclo[glycylphenylalanyltyrosyl-3-(2-iminoimidazolidin-4-yl)seryl-3-(3-hexopyranosyl-2-iminoimidazolidin-4-yl)serylseryl]] (cyclo(GFY[ξEnduracididine(βξ-OH,4'ξ)][X1]S); configuration not given here) the “MIC Escherichia coli (ATCC 25922)” value ([1]; Escherichia coli (ATCC 25922)) was 64 µg/mL (≈ 66.9 µM), the “MIC Escherichia coli (GC 4559)” value ([1]; Escherichia coli (GC 4559)) was 64 µg/mL (≈ 66.9 µM) and the “MIC Escherichia coli (GC 4560)” value ([1]; Escherichia coli (GC 4560)) was 32 µg/mL (≈ 33.4 µM). For the same molecule, the “MIC Streptococcus pneumoniae (ATCC 6301)” value ([2]; strain ATCC 6301) was 64 µg/mL (≈ 66.9 µM), the “MIC Streptococcus pneumoniae (GC 1894)” value ([2]; strain GC 1894) was 64 µg/mL (≈ 66.9 µM) and the “MIC Streptococcus pyogenes (GC 4563)” value ([2]; strain GC 4563) was 64 µg/mL (≈ 66.9 µM). For the same molecule, the “MIC Streptococcus agalactiae (GC 4564)” value ([2]; strain GC 4564) was over 64 µg/mL, the “MIC Streptococcus pneumoniae (GC 4565)” value ([2]; strain GC 4565) was over 64 µg/mL and the “MIC Enterococcus avium (GC 4558)” value ([3]; Enterococcus avium (GC 4558)) was over 64 µg/mL. The “MIC Enterococcus faecalis (ATCC 29212)” value ([3]; Enterococcus faecalis (ATCC 29212)) was over 64 µg/mL, the “MIC Enterococcus faecalis (GC 4553)” value ([3]; Enterococcus faecalis (GC 4553)) was over 64 µg/mL and the “MIC Enterococcus faecalis (GC 4554)” value ([3]; Enterococcus faecalis (GC 4554)) was over 64 µg/mL. For the same molecule, the “MIC Enterococcus faecalis (GC 6189)” value ([3]; Enterococcus faecalis (GC 6189)) was over 64 µg/mL, the “MIC Enterococcus faecium (GC 2243)” value ([3]; Enterococcus faecium (GC 2243)) was over 64 µg/mL and the “MIC Enterococcus faecium (GC 4556)” value ([3]; Enterococcus faecium (GC 4556)) was over 64 µg/mL. The “MIC Enterococcus faecium (GC 4557)” value ([3]; Enterococcus faecium (GC 4557)) was 64 µg/mL (≈ 66.9 µM), the “MIC Enterococcus faecalis (ATCC 29212)” value ([3]; strain ATCC 29212) was over 64 µg/mL and the “MIC Enterococcus faecalis (GC 2242)” value ([3]; strain GC 2242) was over 64 µg/mL. The “MIC Enterococcus faecium (GC 2243)” value ([3]; strain GC 2243) was over 64 µg/mL, the “MIC Enterococcus faecalis (GC 2691)” value ([3]; strain GC 2691) was over 64 µg/mL and the “MIC Enterococcus faecalis (GC 3059)” value ([3]; strain GC 3059) was over 64 µg/mL. For the same molecule, the “MIC Enterococcus faecalis (GC 4552)” value ([3]; strain GC 4552) was over 64 µg/mL, the “MIC Enterococcus faecalis (GC 4553)” value ([3]; strain GC 4553) was over 64 µg/mL and the “MIC Enterococcus faecalis (GC 4554)” value ([3]; strain GC 4554) was over 64 µg/mL. For the same molecule, the “MIC Enterococcus faecium (GC 4556)” value ([3]; strain GC 4556) was over 64 µg/mL, the “MIC Enterococcus faecium (GC 4557)” value ([3]; strain GC 4557) was 64 µg/mL (≈ 66.9 µM) and the “MIC Enterococcus avium (GC 4558)” value ([3]; strain GC 4558) was over 64 µg/mL. The “MIC Enterococcus faecalis (GC 6189)” value ([3]; strain GC 6189) was over 64 µg/mL, the “MIC Coagulase Negative Staphylococcus (GC 4547)” value [4] was 64 µg/mL (≈ 66.9 µM) and the “MIC Coagulase Negative Staphylococcus (GC 4548)” value [4] was over 64 µg/mL. The “MIC Coagulase Negative Staphylococcus (GC 4549)” value [4] was 64 µg/mL (≈ 66.9 µM), the “MIC Coagulase Negative Staphylococcus (GC 4551)” value [4] was over 64 µg/mL and the “MIC Coagulase Negative Staphylococcus (GC 6257)” value [4] was 64 µg/mL (≈ 66.9 µM). The “MIC Staphylococcus aureus (ATCC 29213)” value [4] was over 64 µg/mL, the “MIC Staphylococcus aureus (GC 1131)” value [4] was over 64 µg/mL and the “MIC Staphylococcus aureus (GC 3051)” value [4] was over 64 µg/mL. The “MIC Staphylococcus aureus (GC 3053)” value [4] was over 64 µg/mL, the “MIC Staphylococcus aureus (GC 4541)” value [4] was over 64 µg/mL and the “MIC Staphylococcus aureus (GC 4542)” value [4] was over 64 µg/mL. The “MIC Staphylococcus aureus (GC 4544)” value [4] was over 64 µg/mL, the “MIC Staphylococcus aureus (GC 4545)” value [4] was over 64 µg/mL and the “MIC Staphylococcus aureus-SMITH (GC 4543)” value [4] was over 64 µg/mL. The “MIC Staphylococcus haemolyticus (GC 4546)” value [4] was 64 µg/mL (≈ 66.9 µM), the “MIC Staphylococcus aureus (ATCC 29213)” value ([4]; strain ATCC 29213) was over 64 µg/mL and the “MIC Staphylococcus aureus (GC 1131)” value ([4]; strain GC 1131) was over 64 µg/mL. The “MIC Staphylococcus aureus (GC 3051)” value ([4]; strain GC 3051) was over 64 µg/mL, the “MIC Staphylococcus aureus (GC 3053)” value ([4]; strain GC 3053) was over 64 µg/mL and the “MIC Staphylococcus aureus (GC 4541)” value ([4]; strain GC 4541) was over 64 µg/mL. For the same molecule, the “MIC Staphylococcus aureus (GC 4542)” value ([4]; strain GC 4542) was over 64 µg/mL, the “MIC Staphylococcus aureus (GC 4544)” value ([4]; strain GC 4544) was over 64 µg/mL and the “MIC Staphylococcus aureus (GC 4545)” value ([4]; strain GC 4545) was over 64 µg/mL. For the same molecule, the “MIC Staphylococcus haemolyticus (GC 4546)” value ([4]; strain GC 4546) was 64 µg/mL (≈ 66.9 µM), the “MIC Coagulase Negative Staphylococcus (GC 4547)” value ([4]; strain GC 4547) was 64 µg/mL (≈ 66.9 µM) and the “MIC Coagulase Negative Staphylococcus (GC 4548)” value ([4]; strain GC 4548) was over 64 µg/mL. The “MIC Coagulase Negative Staphylococcus (GC 4549)” value ([4]; strain GC 4549) was 64 µg/mL (≈ 66.9 µM), the “MIC Coagulase Negative Staphylococcus (GC 4551)” value ([4]; strain GC 4551) was over 64 µg/mL and the “MIC Coagulase Negative Staphylococcus (GC 6257)” value ([4]; strain GC 6257) was 64 µg/mL (≈ 66.9 µM). For the same molecule, the “MIC Staphylococcus aureus-SMITH (GC 4543)” value ([4]; strain SMITH GC 4543) was over 64 µg/mL.
